# Source: paper PMC11251039, “Harnessing cholesterol uptake of malaria parasites for therapeutic applications” (EMBO Molecular Medicine, 2024)
# pIC50: −log10 of the molar value. Several values for one entry are separate records, joined by “and”; a condition that tells them apart may be missing. Equal values may be shown once.
# Experiments:
# [1] = test system: human foreskin fibroblasts (HFF); assay: Human foreskin fibroblast growth inhibition assay (SYBR Safe); type: cell-based; conditions: 72 h
# Experimental: HFF cell growth inhibition assays commenced by adding 5000 cells to each well of a 96-well plate. 10 µg/mL cycloheximide was used as a no-growth control. DNA replication (indicating growth) was measured at the specified time using SYBR Safe DNA Gel Stain (Invitrogen 33102) and a fluorescence microplate reader. […]
# Human Foreskin Fibroblast Growth Inhibition Assays:
# The HFF cell line was maintained under routine culture conditions in DMEM containing 3.7 g/L NaHCO3 supplemented with 10% v/v newborn calf serum (NCS), 50 units/mL penicillin, 50 μg/mL streptomycin, 10 μg/mL gentamicin, 0.25 μg/mL amphotericin B, and 0.2 mM L-glutamine at 37 °C in a humidified 5% CO2 incubator. […]
# HFF cells were detached from a flask using 0.25% Trypsin with 0.2 g/L EDTA (Sigma T4049) and washed with culture media. Cells were incubated with a serial dilution of each compound, or media/DMSO alone. Cycloheximide at 10 µg/mL was used as a positive control to determine background fluorescence. Approximately 5 000 cells were seeded in each well. Plates were incubated at 37 °C for 72 hours (until reaching confluency) and the media was removed. Plates were transferred to a -18 °C freezer. Plates were thawed and SYBR Safe DNA Gel Stain (final concentration 1/10,000) diluted in lysis buffer (as above) was added. Fluorescence was read at 490 nm excitation/ 520 nm emission on a FLUOstar Optima fluorescence plate reader. […]
# [2] = test system: P. falciparum stage III–IV gametocytes; assay: P. falciparum gametocyte viability assay (MitoTracker, flow cytometry), stage III-IV; type: cell-based, Plasmodium falciparum; conditions: 48 h; for Gametocyte stage III-IV viability, percentage of control: replicate values, source data Fig. 2C
# Experimental: (§1) Gametocyte assays commenced seven days (stage III–IV) or ten days (stage V) post-invasion. […]
# (§2) Plasmodium falciparum Gametocyte Viability Assays:
# (§3) Asexual P. falciparum parasites were induced to form gametocytes as described (21).
# (§4) Synchronized trophozoite-stage parasites at 2% parasitaemia were incubated overnight and […]
# (§5) haematocrit maintained at 4%. On the subsequent day (designated as day 0) of gametocytogenesis, the culture containing early ring-stage parasites was first purified by sorbitol synchronisation to remove asynchronous trophozoites, and passed through a magnetic field in a sterile MACS® column in a SuperMACSTM II magnet to remove remaining late-stage parasites or later-stage gametocytes (negative selection). The culture medium was supplemented with 50 mM N-acetyl-D-glucosamine to inhibit asexual parasite proliferation, and changed daily. Sorbitol treatment was performed on Day 1, 5, and 6 to further remove asexual parasites. Gametocytes were magnetically enriched (positive selection) in a sterile column with a SuperMACSTM II magnet and eluted in culture media with 50 mM N-acetyl-D-glucosamine. These gametocytes were incubated overnight at 37 °C under microaerophilic conditions, and purity was assessed by examination under a light microscope (400× […]
# (§6) Gametocyte viability was assessed as described by Ridgway et al. (21) with modifications.
# (§7) Compounds or solvent controls (DMSO) were serially diluted across 96-well plates in culture media supplemented with 50 mM N-acetyl-D-glucosamine. Culture media without compound was used as a negative control. […]
# (§8) control to determine background gametocyte fluorescence. Stage III-IV gametocytes (Day 7) or stage V (day 10) gametocytes were concentrated and added to the plate with 200 µL per well. The plate was incubated for 48 hours at 37 °C under humid microaerophilic conditions.
# (§9) Parasites were then stained with 500 nM MitoTrackerTM Deep Red FM and 5 μg/ml Hoechst […]
# (§10) cytometer as described above. […]
# (§11) excluded. Live (positive) and dead (negative) gametocytes were differentiated by […]
# (§12) percentage of each was calculated. […]
# P. berghei liver stages = assay: Plasmodium berghei liver stage growth inhibition assay (luminescence, in Huh7 cells); conditions: for P. berghei liver stage growth, dose-response data points (Figure 3A): replicate data points; for P. berghei liver stage growth, dose-response data points (Figure 3A) / Figure 3E dose-response value (replicates): listed as HJB8a53
# Experimental: Growth inhibition or cell viability were assessed by incubation with a serial dilution of test compounds, solvent controls (DMSO, ethanol, ethyl acetate), or culture media alone in 96-well plates, with detection of fluorescence, luminescence, or absorbance in microplate readers after 24–96 h unless otherwise specified.
# Huh7 cells were seeded at a density of 10,000 cells per well of a 96-well plate, or 20,000 cells per collagen-coated coverslip. After 24 h, test compounds were added the wells were inoculated with P. berghei liver stage sporozoites dissected from infected A. stephensi salivary glands with 5000–10,000 sporozoites per well or 10,000–20,000 sporozoites per coverslip. Uninfected wells served as a control for background luminescence. Luminescence signal was measured 48 h post-invasion by addition of 1:1 ONE-Glo^TM substrate (Promega) with a luminescence microplate reader. Coverslips were fixed, stained, and imaged, with all parasites on each coverslip imaged and delineated as described (Petersen et al, [2017]) using Fiji ImageJ (Schindelin et al, [2012]). Data are presented as a percentage of the size or parasite number of the solvent control to normalize for differences between experiments.
# Growth inhibition data were normalised by subtracting background fluorescence, luminescence, absorbance, or percentage of cells from a no-growth or no-viability control (high drug concentration, no-parasite control, or time = 0 measurement as specified), and expressed as a percentage of the growth or cell percentage in the negative control (culture media alone or solvent control) at the indicated timepoint (or to the highest measurement reached during the assay for Fig. EV3).
# Plasmodium berghei ANKA Bergreen (22) or GFP-Luc (RMgm-29) (23), respectively
# expressing green fluorescent protein (GFP) or a GFP-Luciferase fusion protein, were
# maintained under routine conditions in SWR/J Mus musculus mice and Anopheles stephensi
# Growth inhibition of P. berghei liver-stages was investigated after infection of human
# hepatoma cells (Huh7) and subsequent growth for 48 hours at 37° C, 5% CO2 and 80%
# humidity. The day prior to infection, 10,000 Huh7 cells were seeded in dark-sided 96-well
# microplates (Greiner Bio One). On the day of infection, compounds or solvent controls
# (DMSO) were serially diluted in culture media and 5,000 – 10,000 Bergreen or GFP-Luc
# sporozoites were added per well following dissection from infected A. stephensi salivary
# glands. Uninfected wells served as control for background luminescence. To promote invasion,
# the plates were centrifuged at 1,550 g for 5 minutes. After 60 minutes, the media was
# completely replaced with fresh, prewarmed media with the matching drug concentrations.
# Media was partially replaced with new drug dilutions over the following two days. 48 hours
# post-infection, luminescence signal was measured by addition of 1:1 ONE-GloTM substrate
# (Promega) to the wells, followed by detection at 300 – 700 nm using a Synergy HTX plate
# [3] = test system: P. falciparum stage V gametocytes; assay: P. falciparum gametocyte viability assay (MitoTracker, flow cytometry), stage V; type: cell-based, Plasmodium falciparum; conditions: 48 h; for Gametocyte stage V viability, percentage of control: replicate values, source data Fig. 2D
# Experimental: as §1, §2, §3, §4, §5, §6, §7, §8, §9, §10, §11, §12
# [4] = test system: Toxoplasma gondii tachyzoites (RH strain); assay: Toxoplasma growth inhibition assay (tdTomato fluorescence, in HFF cells); type: cell-based; conditions: Toxoplasma gondii, HFF, 72 h, read-out: IC50, T. gondii tachyzoite growth inhibition
# Experimental: Fluorescence was measured daily with a fluorescence microplate reader for one week, and the background fluorescence from the time 0 reading was subtracted from all other measurements. […]
# Toxoplasma Growth Inhibition Assays:
# Growth inhibition was investigated as described previously (26). Fluorescent Toxoplasma gondii parasites were inoculated into an optical bottom 96-well plate containing confluent human foreskin fibroblast (HFF) host cells at a density of 2,000 parasites/well, with a serial dilution of each compound, or culture media/DMSO (0.1% v/v) alone. Plates were measured daily with a FluoStar Optima fluorescence plate reader at 540 nm excitation and 590 nm emission for one week, and the background fluorescence from the time 0 reading was subtracted from all other measurements. […]
# [5] = 1.562500000 uM, listed as HJB8a53, 1.5625 µM
# [6] = 50.000000000 uM, listed as HJB8a53, 50 µM
# [7] = 100.000000000 uM, listed as HJB8a53, 100 µM
structure (smiles),measurement,setting,value
CC(C)OC(=O)CCC(=O)O[C@H]1CC[C@H]2[C@@H]3CC=C4C[C@@H](O)CC[C@]4(C)[C@H]3CC[C@]12C [C-17-link],Inhibition of fibroblast growth,[1]; HFF,no notable inhibition
same,pIC50,"[1]; Homo sapiens, Fibroblast, read-out: IC50, human fibroblast growth inhibition",< 4.12
same,"Gametocyte stage III-IV viability, percentage of control",[2]; [5],101% and 107% and 102.8% and 99.18% (2×) and 99.4% and 102.9% and 101.9% and 93.96% and 97.92% and 98.49%
same,"Gametocyte stage III-IV viability, percentage of control","[2]; 3.125000000 uM, listed as HJB8a53, 3.125 µM",105.6% and 102% and 105.7% and 98.51% and 101.4% and 101.9% (2×) and 99.18% and 90.27% and 91.12% and 94.52%
same,"Gametocyte stage III-IV viability, percentage of control","[2]; 6.250000000 uM, listed as HJB8a53, 6.25 µM",99.6% and 103.8% and 106.8% and 101.2% and 104.3% and 103.3% and 101% and 100.8% and 93.96% and 96.79% and 98.77%
same,"Gametocyte stage III-IV viability, percentage of control","[2]; 12.500000000 uM, listed as HJB8a53, 12.5 µM",107.8% and 104% and 107.2% and 101.4% and 104.1% (2×) and 102.9% and 101% and 94.24% and 97.07% and 99.62%
same,"Gametocyte stage III-IV viability, percentage of control","[2]; 25.000000000 uM, listed as HJB8a53, 25 µM",98.8% and 98.2% and 107.2% and 103.9% and 105.9% and 102.5% and 102.3% and 103.5% and 88.86% and 88.57% and 89.42%
same,"Gametocyte stage III-IV viability, percentage of control",[2]; [6],91.61% and 97.2% and 99.4% and 103.4% and 99.63% and 101% and 91.35% and 89.5% and 90.53% and 84.89% and 81.49% and 79.23%
same,"Gametocyte stage III-IV viability, percentage of control",[2]; [7],87.57% and 87.36% and 83.7% and 97.18% and 90.82% and 86.32% and 9.91% and 5.752% and 9.494% and 21.99% and 34.89% and 34.32%
same,viability at 1.5625 µM,"[2]; Plasmodium falciparum, read-out: Gametocyte stage III-IV viability, percentage of control, 1.562500000 uM, 48 h, replicate values, source data Fig. 2C",94.6%
same,viability at 3.125 µM,"[2]; Plasmodium falciparum, read-out: Gametocyte stage III-IV viability, percentage of control, 3.125000000 uM, 48 h, replicate values, source data Fig. 2C",94.6%
same,viability at 6.25 µM,"[2]; Plasmodium falciparum, read-out: Gametocyte stage III-IV viability, percentage of control, 6.250000000 uM, 48 h, replicate values, source data Fig. 2C",98.6%
same,viability at 12.5 µM,"[2]; Plasmodium falciparum, read-out: Gametocyte stage III-IV viability, percentage of control, 12.500000000 uM, 48 h, replicate values, source data Fig. 2C",99.8%
same,viability at 25 µM,"[2]; Plasmodium falciparum, read-out: Gametocyte stage III-IV viability, percentage of control, 25.000000000 uM, 48 h, replicate values, source data Fig. 2C",92.6%
same,pIC50,"[2]; Plasmodium falciparum, read-out: IC50, P. falciparum gametocyte stage III-IV inhibition, 48 h",< 4.00
same,"P. berghei liver stage growth, dose-response data points (Figure 3A)",P. berghei liver stages; 0.015241580 uM,96.98 and 119.7 and 83.36 and 88.47 and 108.4 and 103.1 and 97.22 and 85.28 and 117.5
same,"P. berghei liver stage growth, dose-response data points (Figure 3A)",P. berghei liver stages; 0.045724740 uM,121.9 and 106 and 104.9 and 85.8 and 115.6 and 102.5 and 72.1 and 100.2 and 87.82
same,"P. berghei liver stage growth, dose-response data points (Figure 3A)",P. berghei liver stages; 0.137174210 uM,107.2 and 102.6 and 90.17 and 92.54 and 104.7 and 117.6 and 63.06 and 70.96 and 103.2
same,Figure 3E dose-response value (replicates),P. berghei liver stages; 0.292968750 uM,91.07 and 89.1 and 95.27 and 90.14
same,"P. berghei liver stage growth, dose-response data points (Figure 3A)",P. berghei liver stages; 0.411522630 uM,124.2 and 100.4 and 115.1 and 111.4 and 113.3 and 113.5 and 80.27 and 84.75 and 95.46
same,Figure 3E dose-response value (replicates),P. berghei liver stages; 0.585937500 uM,99.86 and 89.88 and 84.85 and 85.63 and 89.93 and 92.67 and 90.44 and 102.5 and 92 and 98.72 and 111.5 and 102.9
same,Figure 3E dose-response value (replicates),P. berghei liver stages; 1.171875000 uM,96.5 and 101.8 and 91.15 and 89.59 and 89.72 and 89.39 and 88.5 and 90.85 and 89.8 and 102.1 and 102.3 and 93.29
same,"P. berghei liver stage growth, dose-response data points (Figure 3A)",P. berghei liver stages; 1.234567900 uM,118.5 and 135.5 and 116.3 and 100.4 and 96.61 and 100.7 and 64.72 and 81.15 and 106.8
same,Figure 3E dose-response value (replicates),P. berghei liver stages; 2.343750000 uM,99.05 and 88.35 and 98.38 and 79.46 and 78.82 and 91.42 and 85.51 and 85.36 and 86.3 and 87.79 and 95.63 and 94.28
same,"P. berghei liver stage growth, dose-response data points (Figure 3A)",P. berghei liver stages; 3.703703700 uM,114 and 106 (2×) and 125.3 and 90.63 and 118.1 and 93.53 and 101.3 and 118.6
same,Figure 3E dose-response value (replicates),P. berghei liver stages; 4.687500000 uM,81 and 89.1 and 99.07 and 91.89 and 81.35 and 88.41 and 75.07 and 84.23 and 79.29 and 90.54 and 102.2 and 92.05
same,Figure 3E dose-response value (replicates),P. berghei liver stages; 9.375000000 uM,89.91 and 74.54 and 79.38 and 86.26 and 88.67 and 93.48 and 71.57 and 72.81 and 73.33 and 83.01 and 90.9 and 81.08
same,"P. berghei liver stage growth, dose-response data points (Figure 3A)",P. berghei liver stages; 11.111111100 uM,92.44 and 108.3 and 77.69 and 72.06 and 110.1 and 86.05 and 62.44 and 84.4 and 99.5
same,Figure 3E dose-response value (replicates),P. berghei liver stages; 18.750000000 uM,68.62 and 75.11 and 71.21 and 83.74 and 80.37 and 86.75 and 49.64 and 47.74 and 45.02 and 68.49 and 77.9 and 71.84
same,"P. berghei liver stage growth, dose-response data points (Figure 3A)",P. berghei liver stages; 33.333333300 uM,25.52 and 39.13 and 33.46 and 43.83 and 48.03 and 60.49 and 20.73 and 60.95 and 57.96
same,Figure 3E dose-response value (replicates),P. berghei liver stages; 37.500000000 uM,25.13 and 30.9 and 15.88 and 48.26 and 43.84 and 49.75 and 11.26 and 13.01 and 10.8 and 38.05 and 39.89 and 41.67
same,Figure 3E dose-response value (replicates),P. berghei liver stages; 75.000000000 uM,2.196 and 1.744 and 3.137 and 1.33 and 2.981 and 3.396 and -0.3545 and -0.4946 and 0.272 and 5.931 and 5.012 and 6.082
same,"P. berghei liver stage growth, dose-response data points (Figure 3A)",P. berghei liver stages; 100.000000000 uM,-0.5671 and 0.5671 and -2.836 and -0.2967 and -0.1696 and 0.5935 and 0.3513 and 0.08782 and 0.4391
same,pIC50,"P. berghei liver stages; Plasmodium berghei, Huh-7, 48 h, read-out: IC50, P. berghei liver stage growth inhibition",4.53
same,"Gametocyte stage V viability, percentage of control",[3]; [5],100.2% and 98.56% and 92.55% and 112.8% and 114.5% and 98.06% and 102.7% and 106.9% and 101%
same,"Gametocyte stage V viability, percentage of control",[3]; [6],69.57% and 81.64% and 85.27%
same,"Gametocyte stage V viability, percentage of control",[3]; [7],29.13% and 28.63% and 16.49% and 6.64% and 5.637% and 3.021% and 27.44% and 23.3% and 20.39%
same,viability at 6.25 µM,"[3]; Plasmodium falciparum, read-out: Gametocyte stage V viability, percentage of control, 6.250000000 uM, 48 h, replicate values, source data Fig. 2D",102%
same,viability at 12.5 µM,"[3]; Plasmodium falciparum, read-out: Gametocyte stage V viability, percentage of control, 12.500000000 uM, 48 h, replicate values, source data Fig. 2D",96.4%
same,pIC50,"[3]; Plasmodium falciparum, read-out: IC50, P. falciparum gametocyte stage V inhibition",4.16
same,pIC50,[4],4.62
